Type in all cases: cell-based
Assay [1] deals with TF (tissue factor). Kind of assay: Inhibitory effects on the TF production in LPS-stimulated human peripheral blood monocytes. Particulars: Monocyte, LPS 1 μg/ml, 16 hours. On the procedure:
Peripheral venous blood was sampled from the healthy person, and submitted to density-gradient centrifugation so that monocytes might be isolated. The monocytes thus obtained were washed with minimum essential medium (MEM, Gibco) and suspended in a culture medium (RPMI-1640(Gibco)+25 mM HEPES buffer+100 μg/ml streptomycin+100 U/ml penicillin G+2 mM L-glutamine) to give a suspension with a density of 1×10^6 cells/ml. A 0.15 ml of the cell suspension was placed onto each of the wells of a 96-well microplate, to which the compound of this invention as described in Tables 4-1 to 4-2 was added (0.05 ml of the culture medium), and the assembly was placed for 1 hour in a CO2 incubator for cultivation. Then, LPS (lipopolysaccarides, E. coli 0111B4, Difco) 1 μg/ml was added thereto, and the assembly was further cultured for 16 hours. After the supernatant being removed, the residue was washed with physiological saline, 0.1 ml of 16 mM OG (n-octyl-β-D-glucopyranoside) was added thereto, and the assembly was stirred to make TF soluble. A 0.2 ml of physiological saline was added to each residue (final dilution was […]) and this preparation was used for determination of the coagulation stimulating activity (TF-like activity). The test compound had been dissolved in DMSO to give a 0.1 M solution which was diluted with the culture medium prior to use. The final concentration of DMSO was 0.01% or less.
To each well of the microplate, 50 μl of human plasma and 50 μl of the test sample prepared as above for determination of the coagulation stimulating activity, or 50 μl of standard thromboplastin (human thromboplastin, Thromborel S, Behringwerke) were added. The microplate was incubated at 37° C. for 5 minutes, to which was added 25 mM CaCl2 (50 μl/well) containing phosphorous lipids (Platelin, Organon Teknica) at a concentration of […] to initiate coagulation. Coagulation was determined on the basis of absorption at 540 nm, and the measurement lasted 7 to 20 minutes. The data were analyzed with a data analyzing software SOFTMax (Molecular Devices) and the maximum rate time was taken as the coagulation time. The logarithmic values of the coagulation times and standard thromboplastin concentrations are plotted, and a regression parabola was drawn among the dots to give a test curve. From the curve, the inhibitory effect (%) of a given test compound on TF production was calculated. (Refer to J. Imnmunol. Methods, 133:21-29, 1990, and Proc. Natl. Acad. Sci. USA, 89:10370-10374, 1992).

Assay [2] has as its system human IgE antibodies. Kind of assay: In vitro inhibition of the production of human IgE antibodies (lymphocytes + IL-4 + anti CD40Ab + IL-10, ELISA). As to conditions: Lymphocyte, 3 μM, read-out: Inhibition of antibody production (%) IgE. As to the method: (§1) According to the method described in J. Immunol., 146:1836-1842, 1991 and J. Immunol., 147:8-13, 1991, the concentrations of IgE and IgG antibodies were measured by the procedures described below.
(§2) Peripheral venous blood was sampled from the healthy person, and submitted to density-gradient centrifugation to isolate lymphocytes. The lymphocytes thus obtained were washed and suspended in a culture medium (RPMI-1640 (provided by Gibco)+10% heat-inactivated FCS (Whittaker)+100 µg/ml streptomycin+100 U/ml penicillin+2mM L-glutamine). The cell suspensions were cultured for 1 week in the presence/absence of the compounds of this invention at the concentrations as described in Tables 3-1 to 3-2 together with human interleukin 4 (IL-4, Genzyme)([…]), anti CD40 antibodies (anti CD40Ab, Biosource, clone B-B20)([…]) and human interleukin 10 (IL-10, Genzyme)([…]). The culture medium was supplied freshly to the cell suspension, and the mixture was further cultured for another week. The supernatant was sampled and the concentrations of IgE and IgG antibodies therein were measured by sandwich ELISA.
(§3) The ELISA was based, for the assay of IgE antibodies, on the use of rabbit anti-human IgE() antibodies (ICN) as the primary antibody and biotin-linked anti-human IgE monoclonal antibodies (G7-26, PharMingen) as the secondary antibody. For the assay of IgG antibodies, anti-human IgG monoclonal antibodies (G18-145, PharMingen) and biotin-linked donkey anti-human IgG antibodies (H+L)(Jackson) were used for the primary and secondary antibodies, respectively. For the assay of both IgE and IgG antibodies, Avidin-Biotin-Horse Radish Peroxidase (ABC kit, Vector Lab) and TMB (3,3',5,5'-tetramethylbenzidine) microwell peroxidase substrate system (Kirkegaard & Perry Laboratories Inc.) were used as the enzyme and the substrate, respectively. The assays were made by the use of conventionally known ELISA.
(§4) The inhibitory effect (%) of a given compound of this invention on the production of the antibody was calculated with respect to the concentration of the same antibody when the compound was not coexistent (refer to Uejima et al., American Academy of Allergy and Immunology, Proceedings of 1995 Annual Meeting, Program No. 818).
(ELISA stands for enzyme-linked immunosorbent assay.)

The test system of assay [3] is human IgG antibodies. Description: In vitro inhibition of human IgG antibody production (lymphocytes + IL-4 + anti CD40Ab + IL-10, ELISA). As to conditions: Lymphocyte, 3 μM. As to the method: as §1, §2, §3, §4

SMILES strings stand for the structures.

Take `COc1ccc2cc(Oc3ccc(C(=O)Nc4ccccc4C(=O)O)cc3)ccc2c1` [compound 1204]: the inhibition at 1 µM in assay [1] is 75.7%. The inhibition at 3 µM in assay [1] was 100%; in assay [2] it was 64%; in assay [3] it was -11.4%. Besides, in assay [1], the inhibition at 10 µM came out at 100%.
`O=C(Nc1ccccc1C(=O)O)c1ccc(Sc2ccc3ccccc3c2)cc1` [compound 3102]: the inhibition at 3 µM in assay [1] is 100%; in assay [2] it was 19.9%; in assay [3], -2.8%.
As for `O=C(Nc1ccccc1C(=O)O)c1ccc(Cc2ccc3ccccc3c2)cc1` [compound 4103], in assay [1], the inhibition at 1 µM was 16.5%. The figures for the inhibition at 3 µM in assay [1], in assay [2] and in assay [3] were 74.4%, 45.5% and -4.2%, respectively. In assay [1], the inhibition at 10 µM was 100%.
For the compound `O=C(Nc1ccccc1C(=O)O)c1ccc(C(=O)c2ccc3ccccc3c2)cc1` [compound 7102], the inhibition at 3 µM in assay [1] was 10.6%; in assay [2], 15.4%; in assay [3], 5.4%. In addition, the inhibition at 10 µM in assay [1] came out at 81.1%.

Usually inhibition stands for the relative decrease from the control value, in per cent.

For the origin of these results see US5945450A, “Naphthalene derivative” (Teijin Limited, priority 1994, dated 1999).
